Source: patent US20100004738A1, “DRUG DELIVERY COATING FOR USE WITH A MEDICAL DEVICE AND METHODS OF TREATING VASCULAR INJURY” (ATRIUM MEDICAL CORPORATION, priority 2005, published 2010)

Legend:
Type in all cases: in vivo
[1] = system: rabbit illiac arteries; experiment: Example 2: drug-loaded Atrium Flyer stents vs Taxus Express in rabbit iliac arteries for 28 days, histomorphic and histopathologic analyses; settings: for EEL Area / IEL Area / Intimal Area / Lumen Area / Stenosis: mean ± SD
Experimental: Histomorphic and histopathologic analyses are then performed.

[2] = system: rabbit illiac arteries; experiment: Example 1: stents implanted in rabbit iliac arteries for 28 days, histomorphic and histopathologic analyses; parameters: Injury Score / Fibrin Score / Inflamm. Score: scale not given here; settings: for % Endothel. / % struts with Fibrin / % struts with RBC / EEL Area / Fibrin Score / IEL Area / Inflamm. Score / Injury Score / Intimal Area / Intimal Thick. / Lumen Area / Medial Area / Medial Thick. / Stenosis / Struts with Giant cells: Atrium Flyer ALPHA-3 coated stent, mean ± SD
Experimental: The Atrium Flyer is compared with bare metal stents, the Atrium Flyer coated with ALPHA-3 without drugs, and Cypher™ drug eluting stent. Histomorphic and histopathologic analyses are then performed.

[3] = system: rabbit's iliac vessel; experiment: Rapamycin drug eluting stents in rabbit iliac vessel, inflammation (inventors' earlier studies)
From the text: The inventors postulate, based on these animal study results, that one consequence of these types of drugs is retarded endothelial cell coverage, and that current drug eluting stents promote more chronic inflammation than would normally be present with a non drug eluting bare metal stent.

[4] = system: rabbit iliacs; experiment: Calcineurin inhibiting compounds after vascular injury in rabbit iliacs (inventors' earlier studies); settings: local delivery, also rat, by reducing giant cell and eosinophil formation
From the text: Studies in rabbit iliacs following vascular injury conducted by and/or on behalf of the inventors show the benefits of using calcineurin inhibiting compounds like Tacrolimus, Cyclosporin A (CsA) and Cyclosporin derivatives, in small animals like the rat, and in rabbits. […] Such vascular injury and sirolimus medicated inflammation can be characterized as having excessive giant cell formation and esinophil propagation.

[5] = Atrium Flyer ALPHA-3 coated stent loaded with high dose of the drug, 28 days
[6] = Atrium Flyer ALPHA-3 coated stent loaded with low dose of the drug, 28 days
[7] = Atrium Flyer ALPHA-3 coated stent loaded with mid-dose of the drug, 28 days
[8] = sirolimus = Atrium drug coated stents, Cypher = commercial stent

O=C1CCc2cc(OCCCCc3nnnn3C3CCCCC3)ccc2N1 [Cilostazol, cilostazol]
EEL Area [1, 5]: 5.73 ± 0.31 mm^2
IEL Area [1, 5]: 5.47 ± 0.26 mm^2
Intimal Area [1, 5]: 1.245 ± 0.303 mm^2
Lumen Area [1, 5]: 4.25 ± 0.42 mm^2
Stenosis [1, 5]: 22.7 ± 5.9%
EEL Area [1, 6]: 5.80 ± 0.22 mm^2
IEL Area [1, 6]: 5.51 ± 0.21 mm^2
Intimal Area [1, 6]: 1.246 ± 0.115 mm^2
Lumen Area [1, 6]: 4.26 ± 0.28 mm^2
Stenosis [1, 6]: 22.7 ± 2.4%
EEL Area [1, 7]: 5.70 ± 0.16 mm^2
IEL Area [1, 7]: 5.43 ± 0.14 mm^2
Intimal Area [1, 7]: 1.257 ± 0.321 mm^2
Lumen Area [1, 7]: 4.25 ± 0.39 mm^2
Stenosis [1, 7]: 23.0 ± 5.7%
reduction in neointima (in words) ([1]; Atrium Flyer coated stents, 28 days): No reduction in neointima

CC(=O)O[C@H]1C(=O)[C@@]2(C)[C@H]([C@H](OC(=O)c3ccccc3)[C@]3(O)C[C@H](OC(=O)[C@H](O)[C@@H](NC(=O)c4ccccc4)c4ccccc4)C(C)=C1C3(C)C)[C@]1(OC(C)=O)CO[C@@H]1C[C@@H]2O [Paclitaxel, paclitaxel]
EEL Area [1, 5]: 5.63 ± 0.24 mm^2
IEL Area [1, 5]: 5.40 ± 0.24 mm^2
Intimal Area [1, 5]: 1.048 ± 0.084 mm^2
Lumen Area [1, 5]: 4.35 ± 0.22 mm^2
Stenosis [1, 5]: 19.4 ± 1.5%
EEL Area [1, 6]: 5.88 ± 0.41 mm^2
IEL Area [1, 6]: 5.58 ± 0.36 mm^2
Intimal Area [1, 6]: 1.234 ± 0.197 mm^2
Lumen Area [1, 6]: 4.35 ± 0.40 mm^2
Stenosis [1, 6]: 22.2 ± 4.0%
EEL Area [1, 7]: 5.56 ± 0.26 mm^2
IEL Area [1, 7]: 5.31 ± 0.25 mm^2
Intimal Area [1, 7]: 1.152 ± 0.243 mm^2
Lumen Area [1, 7]: 4.16 ± 0.27 mm^2
Stenosis [1, 7]: 21.8 ± 5.0%
in-stent neointimal growth (in words) ([1]; Atrium high dose stents, 28 days, compared with Taxus Express): suppresses in-stent neointimal growth
arterial healing (in words) ([1]; rabbit, in vivo): (greater) arterial healing

CO[C@H]1C[C@@H]2CC[C@@H](C)[C@@](O)(O2)C(=O)C(=O)N2CCCC[C@H]2C(=O)O[C@H]([C@H](C)C[C@@H]2CC[C@@H](O)[C@H](OC)C2)CC(=O)[C@H](C)/C=C(\C)[C@@H](O)[C@@H](OC)C(=O)[C@H](C)C[C@H](C)/C=C/C=C/C=C/1C [Sirolimus, Sirolimus (rapamycin)]
tolerability / adverse reaction ([2]; Atrium Flyer ALPHA-3 coated stent loaded with low or high doses of sirolimus): well tolerated, producing no adverse reaction
% Endothel. ([2]; high dose sirolimus, n = 10): 97.90 ± 4.58%
% struts with Fibrin ([2]; high dose sirolimus, n = 10): 11.99 ± 6.81%
% struts with RBC ([2]; high dose sirolimus, n = 10): 2.86 ± 3.23%
EEL Area ([2]; high dose sirolimus, n = 10): 6.24 ± 0.25 mm^2
Fibrin Score ([2]; high dose sirolimus, n = 10): 0.11 ± 0.09
IEL Area ([2]; high dose sirolimus, n = 10): 5.90 ± 0.25 mm^2
Inflamm. Score ([2]; high dose sirolimus, n = 10): 0.03 ± 0.10
Injury Score ([2]; high dose sirolimus, n = 10): 0.04 ± 0.06
Intimal Area ([2]; high dose sirolimus, n = 10): 0.99 ± 0.10 mm^2
Intimal Thick. ([2]; high dose sirolimus, n = 10): 0.08 ± 0.03 mm
Lumen Area ([2]; high dose sirolimus, n = 10): 4.94 ± 0.27 mm^2
Medial Area ([2]; high dose sirolimus, n = 10): 0.34 ± 0.05 mm^2
Medial Thick. ([2]; high dose sirolimus, n = 10): 0.06 ± 0.02 mm
Stenosis ([2]; high dose sirolimus, n = 10): 16.73 ± 1.61%
Struts with Giant cells ([2]; high dose sirolimus, n = 10, in % (unit assumed)): 2.80 ± 0.63
% Endothel. ([2]; low dose sirolimus, n = 8): 97.62 ± 2.67%
% struts with Fibrin ([2]; low dose sirolimus, n = 8): 34.12 ± 20.62%
% struts with RBC ([2]; low dose sirolimus, n = 8): 3.46 ± 3.07%
EEL Area ([2]; low dose sirolimus, n = 8): 5.99 ± 0.44 mm^2
Fibrin Score ([2]; low dose sirolimus, n = 8): 0.20 ± 0.35
IEL Area ([2]; low dose sirolimus, n = 8): 5.63 ± 0.38 mm^2
Inflamm. Score ([2]; low dose sirolimus, n = 8): 0.53 ± 0.41
Injury Score ([2]; low dose sirolimus, n = 8): 0.06 ± 0.07
Intimal Area ([2]; low dose sirolimus, n = 8): 0.97 ± 0.11 mm^2
Intimal Thick. ([2]; low dose sirolimus, n = 8): 0.07 ± 0.01 mm
Lumen Area ([2]; low dose sirolimus, n = 8): 4.74 ± 0.32 mm^2
Medial Area ([2]; low dose sirolimus, n = 8): 0.36 ± 0.09 mm^2
Medial Thick. ([2]; low dose sirolimus, n = 8): 0.05 ± 0.01 mm
Stenosis ([2]; low dose sirolimus, n = 8): 17.15 ± 1.84%
Struts with Giant cells ([2]; low dose sirolimus, n = 8, in % (unit assumed)): 2.50 ± 1.41
endothelialization (in words) [2, 8]: well endothelialized
healing (in words) [2, 8]: delayed healing
EEL Area [1, 5]: 6.13 ± 0.15 mm^2
IEL Area [1, 5]: 5.80 ± 0.16 mm^2
Intimal Area [1, 5]: 1.027 ± 0.036 mm^2
Lumen Area [1, 5]: 4.78 ± 0.20 mm^2
Stenosis [1, 5]: 17.7 ± 1.1%
arterial healing (in words) ([1]; rabbit, in vivo): (greater) arterial healing
% Struts with Giant cells ([1]; rabbit, in vivo, 28 days): 21.9 ± 7.6%
% struts with RBC ([1]; rabbit, in vivo, 28 days): 1.2 ± 2.4%
Endothelium (%) ([1]; rabbit, in vivo, 28 days): 97.2 ± 5.0%
Fibrin Score ([1]; rabbit, in vivo, 28 days): 0.41 ± 0.32
Inflam Score ([1]; rabbit, in vivo, 28 days): 1.00 ± 0.72
inflammatory response around the drug eluting stent (in words) ([3]; Rapamycin drug eluting stent, rabbit iliacs): presence of numerous giant cells and esinophils
amount of inflammation induced by overlapping drug coating ([3]; two separate rapamycin drug eluting stents overlapping in rabbit iliac vessel): increases nearly two fold

C=CC[C@@H]1/C=C(\C)C[C@H](C)C[C@H](OC)[C@H]2O[C@@](O)(C(=O)C(=O)N3CCCC[C@H]3C(=O)O[C@H](/C(C)=C/[C@@H]3CC[C@@H](O)[C@H](OC)C3)[C@H](C)[C@@H](O)CC1=O)[C@H](C)C[C@@H]2OC [Tacrolimus]
inflammation following vascular injury (in words) [4]: effectively reduce inflammation following vascular injury

Cyclosporin A
inflammation following vascular injury (in words) [4]: effectively reduce inflammation following vascular injury
